ChEMBL document CHEMBL5291721, “A preclinical secondary pharmacology resource illuminates target-adverse drug reaction associations of marketed drugs” (Nat Commun, 2023)

Assays:
[1] = biological target: T1, Oxysterols receptor LXR-beta (Homo sapiens, UniProt P55055); format: functional
T1 sequence (P55055 whole entry): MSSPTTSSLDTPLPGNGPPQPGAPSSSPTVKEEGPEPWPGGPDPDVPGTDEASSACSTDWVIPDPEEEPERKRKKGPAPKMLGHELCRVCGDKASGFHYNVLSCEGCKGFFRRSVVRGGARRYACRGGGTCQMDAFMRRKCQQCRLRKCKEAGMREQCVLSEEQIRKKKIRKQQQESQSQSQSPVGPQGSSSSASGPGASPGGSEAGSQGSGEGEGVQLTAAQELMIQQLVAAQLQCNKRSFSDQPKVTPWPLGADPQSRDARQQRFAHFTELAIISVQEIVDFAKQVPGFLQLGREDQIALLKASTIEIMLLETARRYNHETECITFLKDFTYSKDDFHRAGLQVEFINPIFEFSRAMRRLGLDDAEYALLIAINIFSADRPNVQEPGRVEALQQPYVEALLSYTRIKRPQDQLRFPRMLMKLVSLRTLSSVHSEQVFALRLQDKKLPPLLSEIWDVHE

[2] = biological target: T2, Retinoic acid receptor gamma (Homo sapiens, UniProt P13631); format: functional, cell-based
T2 sequence (P13631 whole entry): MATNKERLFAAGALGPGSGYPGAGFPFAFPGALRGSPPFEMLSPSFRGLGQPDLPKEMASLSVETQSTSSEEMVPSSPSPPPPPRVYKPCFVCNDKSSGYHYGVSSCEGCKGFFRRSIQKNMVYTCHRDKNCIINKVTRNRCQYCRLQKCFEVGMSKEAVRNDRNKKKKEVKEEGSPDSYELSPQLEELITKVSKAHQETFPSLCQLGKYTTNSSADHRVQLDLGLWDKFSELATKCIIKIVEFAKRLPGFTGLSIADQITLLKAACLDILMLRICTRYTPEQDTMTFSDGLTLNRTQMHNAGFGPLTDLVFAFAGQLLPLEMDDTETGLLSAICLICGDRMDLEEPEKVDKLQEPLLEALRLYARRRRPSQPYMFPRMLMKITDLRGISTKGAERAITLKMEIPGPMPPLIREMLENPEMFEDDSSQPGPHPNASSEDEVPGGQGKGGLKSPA

[3] = biological target: T3, Retinoic acid receptor alpha (Homo sapiens, UniProt P10276); format: functional, cell-based
T3 sequence (P10276 whole entry): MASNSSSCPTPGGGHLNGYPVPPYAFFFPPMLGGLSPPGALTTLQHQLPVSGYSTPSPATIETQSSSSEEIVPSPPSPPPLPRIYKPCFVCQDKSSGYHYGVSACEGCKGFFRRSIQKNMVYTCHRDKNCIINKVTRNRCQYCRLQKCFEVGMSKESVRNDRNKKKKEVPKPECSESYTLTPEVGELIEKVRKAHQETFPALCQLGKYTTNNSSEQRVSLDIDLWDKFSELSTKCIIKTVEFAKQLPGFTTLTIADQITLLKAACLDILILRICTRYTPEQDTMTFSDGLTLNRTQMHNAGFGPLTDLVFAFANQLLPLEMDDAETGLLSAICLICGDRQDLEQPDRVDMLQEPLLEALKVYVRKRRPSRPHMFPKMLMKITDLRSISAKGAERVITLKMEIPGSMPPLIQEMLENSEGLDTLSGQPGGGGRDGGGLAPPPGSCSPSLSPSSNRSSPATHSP

Estrogen receptor = biological target: T4, Estrogen receptor (Homo sapiens, UniProt P03372); format: functional
T4 sequence (P03372 whole entry): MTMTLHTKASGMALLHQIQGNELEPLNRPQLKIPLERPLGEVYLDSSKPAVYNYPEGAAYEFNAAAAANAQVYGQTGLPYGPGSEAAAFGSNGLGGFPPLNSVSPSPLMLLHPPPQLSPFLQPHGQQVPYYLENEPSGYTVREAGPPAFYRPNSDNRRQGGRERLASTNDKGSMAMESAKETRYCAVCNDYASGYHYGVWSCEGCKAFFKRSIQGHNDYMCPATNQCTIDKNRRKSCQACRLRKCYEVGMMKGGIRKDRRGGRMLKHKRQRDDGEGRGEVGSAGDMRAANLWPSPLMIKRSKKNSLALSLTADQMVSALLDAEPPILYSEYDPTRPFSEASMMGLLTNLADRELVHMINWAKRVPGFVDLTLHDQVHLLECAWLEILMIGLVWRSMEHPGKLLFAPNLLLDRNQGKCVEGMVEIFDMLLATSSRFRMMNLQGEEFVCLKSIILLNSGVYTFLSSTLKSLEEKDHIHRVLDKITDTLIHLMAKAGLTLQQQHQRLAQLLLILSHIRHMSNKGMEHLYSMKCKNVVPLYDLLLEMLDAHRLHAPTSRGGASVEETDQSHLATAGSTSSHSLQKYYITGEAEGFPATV
Note: assay procedure not described here.

## CC(C)c1c(C(=O)Nc2ccccc2)c(-c2ccccc2)c(-c2ccc(F)cc2)n1CC[C@@H](O)C[C@@H](O)CC(=O)O [ATORVASTATIN]
[1]
  AC50: > 30 µM
[2]
  AC50: > 30 µM
[3]
  AC50: > 30 µM

## [H]/N=C(/N)c1ccc(NCc2nc3cc(C(=O)N(CCC(=O)O)c4ccccn4)ccc3n2C)cc1 [DABIGATRAN]
Estrogen receptor
  AC50: > 30 µM
